Key:
[1] = system: (+)-MK-801-induced memory deficits; assay: Novel object recognition (NOR) test in (+)-MK-801 treated rats; assay type: in vivo, male Wistar rats; settings: rat; for Total Exploratory Time in T2 Session: vehicle 49.67 ± 4.63
Protocol: The rats were injected with the respective compounds for 21 consecutive days at the minimum active doses selected previously, based on acute treatment and assessment in the NOR test. The protocol for the NOR test was adapted from the original work and the test was performed according to the previously described protocol, 24 h after the last injection of the investigated compound. The discrimination index (DI) was calculated according to the formula:(7) DI=(EB−EA)/(EA+EB) where EB is the exploration time of novel object during the T2 session and EA is the exploration time of […].
PQA-AZ4 and PQA-AZ-6 were administered for 60 and 30 min, respectively, before the T1 phase (the familiarization phase). MK-801 was used to attenuate learning and was administered at a dose of 0.1 mg/kg (i.p.) 30 min before the familiarization phase (T1). The total exploration time in T2 was used to determine the influence of the treatment on the exploratory activity of the animals.

rats [2] = assay: 18-hour spontaneous activity monitoring; assay type: in vivo, male Wistar rats; settings: rat, after 20-day administration, 1 mg/kg/day i.p., 18-h monitoring
Protocol: Spontaneous activity was measured on the 20th day of the treatment with a special, innovative, radio-frequency identification system (RFID-system), TraffiCage (TSE-Systems, Bad Homburg, Germany). The test was conducted according to the method described previously. The animals had RFID transmitters implanted subcutaneously, which tracked the time they spent in different areas of the cage.

Body weight measurement = assay type: in vivo, rats; settings: rat, 20-day administration, 1 mg/kg/day i.p.
Protocol: Body weight was measured every second day, immediately before the administration of drugs.

Bdnf gene = Bdnf gene expression in brain structures (RT-qPCR, ex vivo); parameters: species or system rats; settings: rat, 1 mg/kg/day i.p., 21 days
Protocol: Animals in all treatment groups were sacrificed by rapid decapitation immediately after the behavioral tests, when the brains and blood samples were collected. For quantitative reverse transcription-polymerase chain reaction (RT-qPCR), the brains of rats were rapidly removed, and the hippocampus and prefrontal cortex were dissected on an ice-cold glass plate. The tissues were frozen in dry ice and stored at −80 °C until required.
The total RNA was extracted from tissues using an RNA Isolation kit (Thermo Fisher Scientific, Rockford, IL, USA), and its concentration was normalized to 20 ng/μL. Reverse transcription was performed with a High-Capacity Reverse Transcription Kit (Life Technologies, Grand Island, NY, USA). A qPCR fast 96-well reaction plate was used for the process with TaqMan Gene Expression assay (Life Technologies) for brain-derived neurotrophic factor Bdnf (Rn02531967_s1) on an Applied Biosystems® 7500 Fast Real-Time PCR Instrument (Applied Biosystems, Foster City, CA, USA), according to the manufacturer’s protocol. Glyceraldehyde-3-phosphate dehydrogenase, Gapdh (Rn01775763_g1), was selected as endogenous control, based on the pilot experiment. Relative normalized expression was calculated using the ΔΔCq method.

[3] = Ferric-reducing antioxidant power (FRAP) of serum; assay type: in vivo, rats; settings: rat, 1 mg/kg/day i.p., 21 days
Protocol: The assay was performed according to Benzie and Strain [46] with some modifications. The FRAP working solution was prepared before the start of the analysis, namely, 0.3 mol acetate buffer (pH 3.6), 0.01 mol TPTZ (2,4,6-tripyridyl-s-triazine; Sigma-Aldrich) in 0.04 mol HCl (POCh, Gliwice, Poland), and 0.02 M FeCl3×6H2O in water (iron (III) chloride hexahydrate; Chempur, Piekary Śląskie, Poland) were mixed in a volumetric ratio of 10:1:1 and protected from light.
Next, 20 µL of the plasma sample tested, brain homogenate, or FeSO4×7H2O solution was mixed with 180 µL of the FRAP working solution. The mixtures obtained were incubated at 37 °C for 30 min and their absorbance was measured at 593 nm. FeSO4×7H2O (100–1000 µM/L) was used for a calibration curve. Deionized water with FRAP solution was used as a blank.

rats [4] = assay: Forced swim test (FST); assay type: in vivo, male Wistar rats; settings: rat
Protocol: The rats were injected for 21 consecutive days at a dose of 1 mg/kg, similar to the dose used in acute treatment, as per data presented in Supplementary Materials (Table S1). The FST was conducted according to the method of Porsolt. On the first day of the experiment, the animals were gently placed individually for 15 min in Plexiglas cylinders (40 cm high, 18 cm in diameter) containing 15 cm of water maintained at 23–25 °C. On removal from water, the rats were placed for 30 min in a Plexiglas box under a 60 W bulb to dry. On the following day (24 h later), the rats were replaced in the cylinder and the total duration of immobility was recorded during the whole 5 min test period. Immobility was assigned when no additional activity was observed other than that necessary to keep the rat’s head above the water. Fresh water was used for each animal.
FST after acute administration of the investigated compounds
Rats were injected 60 min before the test at a dose of 1 mg/kg. FST was carried out according to the method of Porsolt, and the same procedure was used for chronic treatment.
Table S1. Effect of acute treatment of PQA-AZ4, PQA-AZ6, and PQ-10 on the immobility time in the […]
Compound (mg/kg) Immobility time (s)
Compounds were injected i.p. 60 min before the test. Values represent the means ± SEM of immobility in the FST during a 5 min test session. The data were analyzed using one -way ANOVA, followed by Bonferroni‘s post hoc test; NS = nonsignificant; N=7-8.

[5] = Serum glucose, triglyceride and cholesterol concentrations; assay type: in vivo, rats; settings: rat, 1 mg/kg/day i.p., 21 days
Protocol: The blood samples were collected immediately after decapitation and then centrifuged at 600× g […], 4 °C, to separate the plasma. The blood was used to determine metabolic parameters such as glucose, cholesterol, and triglyceride levels, together with liver enzymatic activity.
Standard enzymatic spectrophotometric tests (Biomaxima S.A., Lublin, Poland) were used to determine glucose, cholesterol, and triglyceride levels in the serum. In the presence of an appropriate enzyme, the substrate was converted to a colored compound. Absorbance was measured at a wavelength of 500 nm.

[6] = chronic 1 mg/kg/day i.p., 21 days

| SMILES | Total Exploratory Time in T2 Session ([1]; (+)-MK-801 0.1 mg/kg i.p. + vehicle) [s] | spontaneous activity vs vehicle (rats [2]) | weight gain vs vehicle (Body weight measurement) | Bdnf expression upregulation vs control, hippocampus (Bdnf gene; hippocampus (Hipp)) | Bdnf expression upregulation vs control, prefrontal cortex (Bdnf gene; prefrontal cortex (PFX)) | total antioxidant activity of serum (Fe2+ formed, FRAP) vs control [3] | Immobility time (rats [4]; acute 1 mg/kg i.p., 60 min before test, 5 min session, vehicle 255.9 ± 8.6) [s] | antidepressant-like activity in FST (rats [4]; [6]) | decrease of immobility vs. control group in FST (rats [4]; [6]) | serum glucose concentration vs vehicle [5] | serum triglycerides concentration vs vehicle [5] | total cholesterol concentration vs vehicle [5] | Total Exploratory Time in T2 Session ([1]; 0.3 mg/kg/day i.p. 21 days + (+)-MK-801 0.1 mg/kg) | effect on (+)-MK-801-induced recognition memory deficits (discrimination index) ([1]; 0.3 mg/kg/day i.p., 21 days, (+)-MK-801 0.1 mg/kg i.p.) |
| --- | --- | --- | --- | --- | --- | --- | --- | --- | --- | --- | --- | --- | --- | --- |
| C[C@]12N[C@H](Cc3ccccc31)c1ccccc12 [(+)-MK-801, Dizocilpine, reference compound] | 44.00 ± 4.05 |  |  |  |  |  |  |  |  |  |  |  |  |  |
| COc1cc2ncnc(N3CC[C@@H](Oc4cnc5ccccc5n4)C3)c2cc1OC [PQ-10, 6,7-dimethoxy-4-[(3R)-3-(2-quinoxalinyloxy)-1-pyrrolidinyl]-quinazoline, reference compound] |  | No significant effect | did not result in a change | about 17 fold | about 34 fold | comparable | 249.1 ± 10.4 | showed antidepressant-like properties | about 9% | did not significantly change | did not significantly change | slight but statistically significant (p < 0.05) increase | 47.13 ± 5.69 F(2,18) = 0.3006; NS s | restored recognition memory deficits |

From publication PMC9569954, “The Antidepressant-like Activity, Effects on Recognition Memory Deficits, Bioavailability, and Safety after Chronic Administration of New Dual-Acting Small Compounds Targeting Neuropsychiatric Symptoms in Dementia” (International Journal of Molecular Sciences, 2022)
